Experimental data from ChEMBL document CHEMBL5096184, “Structure activity relationship in β-carboline derived anti-malarial agents” (Eur J Med Chem, 2021).
≈ marks a conversion by molar mass, not a printed value. One block for each molecule: values may come before it.

Assays:
[1] = tested on: Plasmodium falciparum; experiment: Antimalarial activity against chloroquine sensitive Plasmodium falciparum K1; type: functional, organism-based
[2] = tested on: Plasmodium falciparum; experiment: Antimalarial activity against chloroquine sensitive Plasmodium falciparum 3D7; type: functional, organism-based
[3] = tested on: Leishmania donovani; experiment: Antileishmanial activity against Leishmania donovani MHOM-ET-67/L82; type: functional, organism-based
[4] = Selectivity index, ratio of IC50 for rat L6 cells to IC50 for Plasmodium falciparum K1; type: toxicity; conditions: L6 cells versus Plasmodium falciparum K1, read-out: Ratio IC50
[5] = tested on: Plasmodium falciparum; experiment: Antimalarial activity against Plasmodium falciparum K1; type: functional, organism-based
[6] = Cytotoxicity against rat L6 cells assessed as reduction in cell viability; type: toxicity, cell-based
[7] = tested on: Trypanosoma cruzi; experiment: Antitrypanosomal activity against Trypanosoma cruzi Tulahuen C2C4; type: functional, organism-based
[8] = tested on: Trypanosoma brucei; experiment: Antitrypanosomal activity against Trypanosoma brucei rhodesiense STIB 900; type: functional, organism-based
[9] = tested on: Plasmodium falciparum; experiment: Antimalarial activity against multi drug resistant Plasmodium falciparum W2; type: functional, organism-based
[10] = tested on: Plasmodium falciparum; experiment: Antimalarial activity against chloroquine-resistant Plasmodium falciparum; type: functional, organism-based
[11] = tested on: Plasmodium falciparum; experiment: Antimalarial activity against Plasmodium falciparum W2 (MRA-157) incubated for 72 hrs; type: functional, organism-based
[12] = tested on: Plasmodium falciparum; experiment: Antimalarial activity against Plasmodium falciparum D6; type: functional, organism-based
[13] = tested on: Plasmodium falciparum; experiment: Antiplasmodial activity against chloroquine sensitive Plasmodium falciparum FCA 20/Ghana; type: functional, organism-based
[14] = tested on: Plasmodium falciparum; experiment: Antiplasmodial activity against chloroquine sensitive Plasmodium falciparum FCB1-R/Colombia; type: functional, organism-based
[15] = tested on: Plasmodium falciparum; experiment: Antiplasmodial activity against chloroquine sensitive Plasmodium falciparum W2/Indochina; type: functional, organism-based
[16] = tested on: Plasmodium falciparum; experiment: Antiplasmodial activity against GHA chloroquine sensitive Plasmodium falciparum; type: functional, organism-based
[17] = Cytotoxicity against human MRC5 cells; type: toxicity, cell-based
[18] = Plasmodium falciparum, FCA 20/Ghana
[19] = Plasmodium falciparum, W2/Indochina

Structure (SMILES): COC(=O)c1cc2c3c(c1)c1cc(Cl)ccc1n3C=C(C)OC2
IC50 [1]: > 2.45 µM
IC50 [2]: > 1.78 µM

IC50 [3]: 20.4 µM
IC50 [5]: 459 nM
IC50 [7]: 12.6 µM
IC50 [8]: 4.5 µM
Structure (SMILES): CCCc1cccc(-[n+]2ccc3c(c2)[nH]c2ccc(Br)cc23)c1
selectivity ratio [4]: 60
IC50 [6]: 27.5 µM

Structure (SMILES): Cc1ccc(C2NCCc3c2[nH]c2ccccc32)cc1 (centres undefined)
IC50 [9]: 7.6 µM

Structure (SMILES): COC(=O)C1Cc2c([nH]c3ccccc23)C(c2c[nH]c3ccccc23)=N1 (centres undefined)
IC50 [10]: > 29 µM

Structure (SMILES): COC(=O)c1cc2c3c(c1)c1cc(Br)ccc1n3C=C(C)OC2
IC50 [2]: > 5 µM

Structure (SMILES): c1ccc2c(C3NCCc4c3[nH]c3ccccc43)c[nH]c2c1 (centres undefined)
IC50 [10]: 5.1 µM

Structure (SMILES): O=C(O)c1cc2c([nH]c3ccccc32)c(-c2c[nH]c3ccccc23)n1
IC50 [10]: > 3.1 µM

Structure (SMILES): Brc1ccc(C2NCCc3c2[nH]c2ccccc32)cc1 (centres undefined)
IC50 [11]: 6.9 µM

IC50 [12]: 0.2 µg/mL (≈ 0.52 µM)
Structure (SMILES): O[C@]12C=C[C@@H]3CCN(CCCC/C=C\CC1)C[C@@]31C[C@@H]3CCCCCCN3[C@H]12

Structure (SMILES): COc1ccc2[nH]cc(C3NCCc4c3[nH]c3ccc(OC)cc43)c2c1 (centres undefined)
IC50 [10]: 8 µM

Structure (SMILES): C/C=C/CC1OC(C)=Cn2c3ccccc3c3cc(C(=O)OC)cc1c32 (centres undefined)
IC50 [2]: > 5 µM

Structure (SMILES): Clc1ccc2[nH]c3c(N4CCC(N5CCCC5)CC4)nccc3c2c1
IC50 [5]: 930 nM

Structure (SMILES): C=C[C@H]1CN2CCc3c([nH]c4c([C@@H]5CCCN5C)c(O)ccc34)[C@@H]2C[C@@H]1CC1c2[nH]c3ccccc3c2CCN1C (some centres undefined)
IC50 [13, 18]: 0.12 µM
IC50 [14]: < 500 nM
IC50 [15, 19]: 152 nM

Structure (SMILES): Clc1ccc2[nH]c3c(N4CCC(N5CCCCC5)CC4)nccc3c2c1
IC50 [5]: 10200 nM

Structure (SMILES): C=C(C#N)C1OC(C)=Cn2c3ccccc3c3cc(C(=O)OC)cc1c32 (centres undefined)
IC50 [2]: > 5 µM

IC50 [13]: 25.9 µM
IC50 [13, 18]: 17 µM
Structure (SMILES): CN1CCc2c3n(c4ccccc24)C(O)C[C@H](C2=CCOC2=O)C[C@@H]31 (some centres undefined)

IC50 [16]: 60 µM
Structure (SMILES): CC(C)(C)OC(=O)CC[C@@H]1NC(=O)[C@H]2Cc3c([nH]c4ccccc34)C(c3ccc4c(c3)OCO4)N2C1=O (some centres undefined)
IC50 [17]: > 64 µM

Structure (SMILES): COC(=O)c1cc2c([nH]c3ccccc32)c(-c2c[nH]c3ccccc23)n1
IC50 [10]: > 29 µM

Structure (SMILES): Cc1cccc(C2NCCc3c2[nH]c2ccccc32)c1 (centres undefined)
IC50 [9]: 38.1 µM

Structure (SMILES): CN(C)c1ccc(C2NCCc3c2[nH]c2ccccc32)cc1 (centres undefined)
IC50 [11]: 3.9 µM

Structure (SMILES): COC(=O)c1cc2c3c(c1)c1ccccc1n3C=C(C)OC2C1C=CCCC1 (centres undefined)
IC50 [1]: > 5 µM
IC50 [2]: 1.64 µM

IC50 [11]: 11.3 µM
Structure (SMILES): COc1cc(C2NCCc3c2[nH]c2ccccc32)c([N+](=O)[O-])cc1OC (centres undefined)

IC50 [16]: > 64 µM
Structure (SMILES): O=C1N[C@@H](COCc2ccccc2)C(=O)N2C(c3ccc4c(c3)OCO4)c3[nH]c4ccccc4c3C[C@H]12 (some centres undefined)
IC50 [17]: > 64 µM

IC50 [5]: 240 nM
Structure (SMILES): CCN(CC)CCC(C)Nc1nccc2c1[nH]c1ccc(Cl)cc12 (centres undefined)

IC50 [11]: 29.2 µM
Structure (SMILES): COc1ccc(OC)c(C2NCCc3c2[nH]c2ccccc32)c1 (centres undefined)

Structure (SMILES): COC(=O)c1cc2c3c(c1)c1cc(Cl)ccc1n3C=C(C)OC2C/C=C(\C)CCC=C(C)C (centres undefined)
IC50 [1]: > 5 µM
IC50 [2]: 1.55 µM

IC50 [11]: 47.7 µM
Structure (SMILES): O=[N+]([O-])c1ccccc1C1NCCc2c1[nH]c1ccccc21 (centres undefined)

Structure (SMILES): C=CCC1OC(C)=Cn2c3ccc(Cl)cc3c3cc(C(=O)OC)cc1c32 (centres undefined)
IC50 [1]: > 5 µM
IC50 [2]: > 5 µM

Structure (SMILES): O=[N+]([O-])c1ccc(C2NCCc3c2[nH]c2ccccc32)cc1 (centres undefined)
IC50 [11]: 1.7 µM

Structure (SMILES): C=CCC1OC(C)=Cn2c3ccccc3c3cc(C(=O)OC)cc1c32 (centres undefined)
IC50 [1]: > 5 µM
IC50 [2]: > 5 µM

IC50 [16]: 4 µM
Structure (SMILES): NCCCC[C@H]1NC(=O)[C@H]2Cc3c([nH]c4ccccc34)C(c3ccc4c(c3)OCO4)N2C1=O (some centres undefined)
IC50 [17]: > 64 µM

Structure (SMILES): COC(=O)c1cc2c3c(c1)c1ccccc1n3C=C(C)OC2C1=CCCC=C1 (centres undefined)
IC50 [1]: > 5 µM
IC50 [2]: > 5 µM

Structure (SMILES): Cc1ccccc1C1NCCc2c1[nH]c1ccccc21 (centres undefined)
IC50 [9]: 15.2 µM

IC50 [5]: 1200 nM
Structure (SMILES): CCN(CC)CCC(C)Nc1nccc2c1[nH]c1ccc(F)cc12 (centres undefined)

Structure (SMILES): COC(=O)C1Cc2c([nH]c3ccccc23)C(c2c[nH]c3ccccc23)N1 (centres undefined)
IC50 [10]: 13.6 µM

IC50 [5]: 420 nM
Structure (SMILES): CCN(CC)CCC(C)Nc1nccc2c1[nH]c1ccccc12 (centres undefined)

IC50 [16]: 25 µM
Structure (SMILES): O=C1N[C@@H](Cc2c[nH]c3ccccc23)C(=O)N2C(c3ccc4c(c3)OCO4)c3[nH]c4ccccc4c3C[C@H]12 (some centres undefined)
IC50 [17]: 35 µM

IC50 [11]: 12.6 µM
Structure (SMILES): FC(F)(F)c1ccc(C2NCCc3c2[nH]c2ccccc32)cc1 (centres undefined)

Structure (SMILES): CCN(CC)C1CCN(c2nccc3c2[nH]c2ccc(Cl)cc23)CC1
IC50 [5]: 1600 nM

Structure (SMILES): Fc1ccc(C2NCCc3c2[nH]c2ccccc32)cc1 (centres undefined)
IC50 [11]: 1.1 µM

Structure (SMILES): C/C=C1\CN2CCc3c([nH]c4ccccc34)[C@@H]2C[C@@H]1CC1=NCCc2c1[nH]c1ccccc21
IC50 [13, 18]: 0.857 µM
IC50 [14]: < 2000 nM
IC50 [15, 19]: 32 nM

Structure (SMILES): C[n+]1ccc2c(c1)[nH]c1ccc(Br)cc12
IC50 [3]: > 223 µM

Structure (SMILES): N#Cc1ccc(C2NCCc3c2[nH]c2ccccc32)cc1 (centres undefined)
IC50 [11]: 1.1 µM

Structure (SMILES): CC1C2=CN3CCc4c([nH]c5ccc(O)cc45)C3CC2CC2C3C(CCN2C)c2ccccc2N13 (stereo in doubt; 33)
IC50 [13]: 9.55 µM
IC50 [15]: 12700 nM

Structure (SMILES): CC1C2=CN3CCc4c([nH]c5ccc(O)cc45)C3CC2CC2C3C(CCN2C)c2ccccc2N13 (stereo in doubt; 34)
IC50 [13, 18]: 12.6 µM
IC50 [14]: 2000 nM
IC50 [15]: 4570 nM

Structure (SMILES): CC1NCCc2c1[nH]c1ccccc21 (centres undefined) [TETRAHYDROHARMAN]
IC50 [9]: 1.4 µM
